We go through 25 compounds from US8859581B2, “Azaheterocyclic compounds as kinase inhibitors” (Merck Patent GmbH, priority 2005, dated 2014).

Structures are written as SMILES.

T1 sequence (P08069 31-1367): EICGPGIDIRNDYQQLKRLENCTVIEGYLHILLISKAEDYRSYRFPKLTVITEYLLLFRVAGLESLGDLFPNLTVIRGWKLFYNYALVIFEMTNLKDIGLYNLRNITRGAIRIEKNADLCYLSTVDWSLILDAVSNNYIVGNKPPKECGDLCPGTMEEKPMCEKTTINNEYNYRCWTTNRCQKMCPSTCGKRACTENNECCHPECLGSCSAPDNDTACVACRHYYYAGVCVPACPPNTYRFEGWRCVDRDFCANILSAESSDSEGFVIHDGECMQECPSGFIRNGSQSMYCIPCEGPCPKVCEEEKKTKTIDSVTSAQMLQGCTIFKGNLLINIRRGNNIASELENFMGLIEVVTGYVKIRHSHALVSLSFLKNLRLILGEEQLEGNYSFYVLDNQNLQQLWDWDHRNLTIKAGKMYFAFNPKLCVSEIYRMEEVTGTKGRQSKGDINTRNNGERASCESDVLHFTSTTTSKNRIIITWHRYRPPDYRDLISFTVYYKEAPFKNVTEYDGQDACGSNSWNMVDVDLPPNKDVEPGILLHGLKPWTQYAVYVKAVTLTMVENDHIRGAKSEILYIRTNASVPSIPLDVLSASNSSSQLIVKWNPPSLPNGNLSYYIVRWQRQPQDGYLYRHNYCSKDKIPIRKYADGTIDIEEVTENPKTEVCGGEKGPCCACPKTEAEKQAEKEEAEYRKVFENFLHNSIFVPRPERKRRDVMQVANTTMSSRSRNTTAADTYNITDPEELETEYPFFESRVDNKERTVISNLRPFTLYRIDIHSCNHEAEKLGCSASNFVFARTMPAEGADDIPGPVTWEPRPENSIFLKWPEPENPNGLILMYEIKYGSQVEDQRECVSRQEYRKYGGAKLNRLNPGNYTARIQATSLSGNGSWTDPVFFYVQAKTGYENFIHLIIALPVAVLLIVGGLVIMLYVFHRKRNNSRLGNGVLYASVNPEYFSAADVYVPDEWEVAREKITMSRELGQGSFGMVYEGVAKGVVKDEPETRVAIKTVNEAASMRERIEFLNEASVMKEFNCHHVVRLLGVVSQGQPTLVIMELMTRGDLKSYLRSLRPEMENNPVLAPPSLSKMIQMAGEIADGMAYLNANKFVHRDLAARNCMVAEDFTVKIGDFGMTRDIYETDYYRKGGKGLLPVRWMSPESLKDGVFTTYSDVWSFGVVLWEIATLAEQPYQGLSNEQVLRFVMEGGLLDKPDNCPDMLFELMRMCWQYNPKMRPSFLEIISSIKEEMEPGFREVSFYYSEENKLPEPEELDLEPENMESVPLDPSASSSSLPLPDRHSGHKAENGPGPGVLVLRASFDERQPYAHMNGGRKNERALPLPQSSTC

Test system in the first data set: not given
Assay: not given
Details: not given
Broadly, the melting point is the temperature, or range, at which the solid turns liquid. The compound `COc1cc(-c2cc3c(Nc4cccc(F)c4)ccnc3[nH]2)cc(OC)c1OC` [Compound 4] came in with a melting point of 80 to 81 °C.
The compound `NCCCCCn1cc(-c2cccc(OCc3ccccc3)c2)c2c(N)nccc21` [Compound 69] gave a melting point of 75 to 78 °C.
The same measure, in the same setting: as for `c1ccc(COc2cccc(-c3cc4cnccc4[nH]3)c2)cc1` [Compound 70], the figure is 168 to 170 °C; as for `COc1ccc(-c2cc3cnccc3[nH]2)cc1` [Compound 75], 205 to 207 °C.
For the compound `COc1cccc(-c2c[nH]c3cc(Cl)ncc23)c1` [Compound 77], the melting point lay in the range of 211 to 212 °C.
Regarding `COc1cccc(-c2cn(CCNC(=O)c3ccccc3C(=O)O)c3cc(Cl)ncc23)c1` [Compound 78], the melting point was 160 °C (dec.).
Consider `COc1cccc(-c2cn(CCCNC(=O)c3ccccc3C(=O)O)c3cc(Cl)ncc23)c1` [Compound 79], for which the melting point lay in the range of 100 to 101 °C.
The same measure, in the same setting: with `COc1cccc(-c2cn(C3CC(CNC(=O)c4ccccc4C(=O)O)C3)c3cc(Cl)ncc23)c1` (stereo not drawn) [Compound 80] the figure was 177 to 180 °C; with `COc1cccc(-c2cn(CCCCCNC(=O)c3ccccc3C(=O)O)c3cc(Cl)ncc23)c1` [Compound 82], 97 to 99 °C.
`Clc1cc2[nH]cc(-c3cccc(OCc4ccccc4)c3)c2cn1` [Compound 83] showed a melting point of 225 to 228.5 °C.

A further data set has as its target T1, IGF1R (Homo sapiens, UniProt P08069).
T1 construct: endogenous in cells
In words: Inhibition of IGF-1R (IC50): IGF1-stimulated IGF1R autophosphorylation in human tumour cells, Capture-ELISA or LUMINEX. The format is cell-based. As to conditions: human tumour cells expressing IGF1R (for example MCF-7 or Calu-6); 45 min pre-treatment, IGF1 stimulation 5 min; read-out: IC50 (μM), IGF1R. The procedure: Cultivated human tumour cells which express the IGF1 receptor (IGF1R) (for example MCF-7 or Calu-6) are stimulated using human IGF1, the natural ligand of IGF1R. The stimulation induces autophosphorylation of tyrosine residues in the cytoplasmatic IGF1R domain, which triggers signal transduction cascades, which result in apoptosis inhibition and cell proliferation.
The amount of phosphorylated IGF1R is determined by a receptor-specific Capture-ELISA or an analogous LUMINEX assay. The IGF1R from cell lysates is bound to a 96-well ELISA plate or LUMINEX beads (“capturing”) by means of a specific antibody, and the tyrosine phosphorylation is detected using a biotin-labelled anti-phosphotyrosine antibody and a streptavidin peroxidase conjugate by a chemoluminescence method or by means of a fluorescence-labelled anti-phosphotyrosine antibody, In order to determine the activity of kinase inhibitors, cells are pre-treated with increasing concentrations of these compounds for 45 min and subsequently stimulated using IGF1 for 5 min. As internal control, the biological activity of the ligand IGF1 is checked and a concentration series of an IGF1R reference inhibitor measured.
A general note: In an ELISA, binding on a coated surface is turned into a signal by an enzyme label.
With `COc1cc(-c2cc3c(Nc4cccnc4)ccnc3[nH]2)cc(OC)c1OC` [Compound 2], the IC50 is 0.76 µM.
Turning to `COc1ccc(Nc2ccnc3[nH]c(-c4cc(OC)c(OC)c(OC)c4)cc23)cc1N1CCN(C)CC1` [Compound 3], the IC50 came out at 0.99 µM.
As for `COc1cc(-c2cc3c(Nc4cccc(F)c4)ccnc3[nH]2)cc(OC)c1OC` [Compound 4], the IC50 worked out at 0.86 µM.
The same measure, in the same setting: with `COc1cc(-c2cc3c(Nc4cnccn4)ccnc3[nH]2)cc(OC)c1OC` [Compound 7] the figure was 0.76 µM; with `COc1cc(-c2cc3c(NCc4cccnc4)ccnc3[nH]2)cc(OC)c1OC` [Compound 8], 0.93 µM.
For the compound `COc1cc(-c2cc3c(NCCc4cccnc4)ccnc3[nH]2)cc(OC)c1OC` [Compound 9], the IC50 came out at 1.2 µM.
Consider `COc1cc(-c2cc3c(NCCc4ccccn4)ccnc3[nH]2)cc(OC)c1OC` [Compound 10], for which the IC50 amounted to 1.4 µM.
For `COc1cc(-c2cc3c(Nc4cccc(C#N)c4)ccnc3[nH]2)cc(OC)c1OC` [Compound 11], the IC50 came out at 1.6 µM.
On to `COc1cccc(-c2cc3c(NCc4ccccc4)ccnc3[nH]2)c1` [Compound 14], for which the IC50 was found to be 10 µM.
Same read-out and setting: as for `COc1ccc(CNc2ccnc3[nH]c(-c4ccc(OC)cc4)cc23)cc1` [Compound 16], the figure is 11 µM.
For `C#CCCCCNc1ccnc2[nH]c(-c3ccc(OC)cc3)cc12` [Compound 20], the IC50 was determined as 9.9 µM.
In the case of `NCCCCn1cc(-c2cccc(OCc3ccccc3)c2)c2c(N)nccc21` [Compound 68], the IC50 is 20 µM.
As to `NCCCCCn1cc(-c2cccc(OCc3ccccc3)c2)c2c(N)nccc21` [Compound 69], the IC50 turned out to be 5.7 µM.
The same measure, in the same setting: with `NCCCn1cc(-c2cccc(OCc3ccccc3)c2)c2c(N)nccc21` [Compound 71] the figure was 4.8 µM.
Regarding `NCCn1cc(-c2cccc(OCc3ccccc3)c2)c2cnccc21` [Compound 72], the IC50 was found to be 25 µM.
As to `NCC1CC(n2cc(-c3cccc(OCc4ccccc4)c3)c3c(N)nccc32)C1` (stereo not drawn) [Compound 73], the IC50 was 0.91 µM.

The same data set, now with this note: human tumour cells expressing IGF1R (for example MCF-7 or Calu-6); 45 min pre-treatment, IGF1 stimulation 5 min; read-out: concentration at which the substance inhibits the kinase IGF-1R to the extent of 50%.
Consider `COc1cc(-c2cc3c(Nc4cnc5ccccc5c4)ccnc3[nH]2)cc(OC)c1OC` [Compound 1, quinolin-3-yl-[2-(3,4,5-trimethoxyphenyl)-1H-pyrrolo[2,3b]pyridin-4-yl]amine], for which the IC50 stood at 14 µM.
